# Data from patent US11246849B2, “Nerve growth promoter” (LAIMU CORPORATION, priority 2017, dated 2022).
# Test system: PCl2 cells
# Test: Bt2cAMP-inductive neurite formation effect
# Assay type: cell-based, rat
# Conditions: 0.5 mM Bt2cAMP; RPMI-1640; 0.2 μM or 2 μM; FIG. 4
# Experimental: (§1) Using rat adrenal medullary pheochromocytoma-derived PCl2 cells obtained from Riken BioResource Research Center as a model, the L-valine solutions prepared in Preparation Examples were evaluated for the neurite formation effect and the neural differential promoting effect thereof. When acted on by Bt2cAMP (dibutyryladenosine 3′,5′-cyclic monophosphate) or NGF, the PCl2 cells are known to stop growing and to grow nerve fibers and elongate sympathetic ganglionic neuron-like dendrites. Here, L-valine was introduced into the Bt2cAMP-inductive neurite formation process and the NGF-inductive neural differentiation process to thereby evaluate the neurite formation effect and the neural differentiation promoting effect thereof, and the effect of L-valine was compared with that of L-leucine and L-isolencine.
# (§2) Here, the PCl2 cells were cultivated using an RPMI-1640 medium containing 10% equine serum (inactivated), 5% bovine fetal serum (inactivated), 100 U/mL penicillin G and 100 μg/mL streptomycin, in a 5% CO2 vapor phase in an incubator at 37° C., and the resultant cells in an about 70% confluent state were peeled with a basal medium and used in the experiment. In the following, the medium having the same composition as the medium used in cultivation of the PCl2 cells is referred to as “basal medium”.
# Here, for the judgement of positivity or negativity, 300 to 400 cells/well were observed.
# In the same manner as in the above-mentioned preliminary experiment, a suspension of PCl2 cells was sown in a collagen-coated 96-well plate at 4.0×10^3 cells/90 μL/well, and cultivated therein in a 5% CO2 vapor phase at 37° C. for 24 hours. After the cultivation, Dulbecco PBS(−) containing 10 mM Bt2cAMP, and the L-valine solution prepared in Preparation Example 1 or Preparation Example 2 were added to each well each in an amount of 5 μL/well, and the cells were further cultivated for 24 hours. At this time, the Bt2cAMP concentration in the medium in each well was 0.5 mM.
# Next, co-addition of valine and methionine to a medium was checked for the effect. In the same manner as above, Bt2cAMP was added to an RPMI-1640 medium where PCl2 cells were sown and cultivated in each well, and further, an L-valine solution, an L-methionine solution, or a solution of a mixture prepared by mixing L-valine and L-methionine at 1/1 was added thereto and the cells were further cultivated to check for the neurite formation rate. Regarding the concentration of the amino acid added to the RPMI-1640 medium, the concentration in the system using the L-valine solution or the L-methionine solution was 0.2 μM, and the concentration of L-valine and L-methionine in the system using the L-valine and L-methionine mixture solution was 0.1 μM each, totaling 0.2 μM.
row,SMILES,neurite formation promoting effect compared with L-valine
1,CC(C)[C@@H](N)C(=O)O [D-valine],same neurite formation promoting effect like that of L-valine
2,CC(=O)N[C@H](C(=O)O)C(C)C [N-acetyl-L-valine],same neurite formation promoting effect like that of L-valine

# Same assay, conditions: 0.5 mM Bt2cAMP; RPMI-1640; amino acid concentration increased up to 200 μM
row,SMILES,change in the neurite formation ratio
1,N=C(N)NCCC[C@H](N)C(=O)O [arginine],could not provide any significant change
2,O=C(O)[C@@H]1CCCN1 [proline],could not provide any significant change
3,C[C@@H](O)[C@H](N)C(=O)O [threonine],could not provide any significant change
4,N[C@@H](Cc1c[nH]cn1)C(=O)O [histidine],could not provide any significant change
5,N[C@@H](Cc1c[nH]c2ccccc12)C(=O)O [tryptophan],could not provide any significant change
6,NC(=O)CC[C@H](N)C(=O)O [glutamine],could not provide any significant change
7,NCCCC[C@H](N)C(=O)O [lysine],could not provide any significant change
8,N[C@@H](Cc1ccccc1)C(=O)O [phenylalanine],could not provide any significant change
9,N[C@@H](Cc1ccc(O)cc1)C(=O)O [tyrosine],could not provide any significant change
10,N[C@@H](CS)C(=O)O [cysteine],could not provide any significant change
11,NC(=O)C[C@H](N)C(=O)O [asparagine],could not provide any significant change
12,N[C@@H](CCC(=O)O)C(=O)O [glutamic acid],could not provide any significant change
13,C[C@H](N)C(=O)O [alanine],could not provide any significant change
14,N[C@@H](CO)C(=O)O [serine],could not provide any significant change
15,NCC(=O)O [glycine],could not provide any significant change
16,N[C@@H](CC(=O)O)C(=O)O [aspartic acid],could not provide any significant change

# Same assay, conditions: 0.5 mM Bt2cAMP; RPMI-1640; high concentration of 20 μM; FIG. 5
row,SMILES,neurite formation promoting effect
1,CSCC[C@H](N)C(=O)O [L-methionine],exhibited the neurite formation promoting effect
2,CSCC[C@@H](N)C(=O)O [D-methionine],exhibited the neurite formation promoting effect

# Same assay, conditions: 0.5 mM Bt2cAMP; amino acid 0.02 or 0.2 μg/mL in RPMI-1640 (FIG. 2), 0.02 μg/mL in Nutrient Mixture F-12 Ham (FIG. 3); 24 hours
row,SMILES,neurite formation promoting effect
1,CC(C)[C@H](N)C(=O)O [L-valine],significantly promoted
2,CC[C@H](C)[C@H](N)C(=O)O [L-isoleucine],could not be recognized
3,CC(C)C[C@H](N)C(=O)O [L-leucine],could not be recognized

# Test system: PCl2 cells
# Test: NGF-inductive neural differentiation, neurofilament immunofluorescent staining
# Assay type: cell-based, rat
# Conditions: NGF plus L-valine (sample 1) versus NGF only (comparative sample 2); 48 hours; FIG. 7
# Experimental: as §1, §2
# A neurofilament was used as a neural differentiation marker. […]
row,SMILES,neurofilaments (bright spots in FITC fluorescently-stained image) versus NGF alone
1,CC(C)[C@H](N)C(=O)O [L-valine],larger number of bright spots

# Test system: PCl2 cells
# Test: Bt2cAMP concentration dependency of neurite formation rate (preliminary experiment)
# Assay type: cell-based, rat
# Conditions: Bt2cAMP concentration in the medium 1.0 mM; 24 hours; FIG. 1
# Experimental: Using rat adrenal medullary pheochromocytoma-derived PCl2 cells obtained from Riken BioResource Research Center as a model, the L-valine solutions prepared in Preparation Examples were evaluated for the neurite formation effect and the neural differential promoting effect thereof. When acted on by Bt2cAMP (dibutyryladenosine 3′,5′-cyclic monophosphate) or NGF, the PCl2 cells are known to stop growing and to grow nerve fibers and elongate sympathetic ganglionic neuron-like dendrites. Here, L-valine was introduced into the Bt2cAMP-inductive neurite formation process and the NGF-inductive neural differentiation process to thereby evaluate the neurite formation effect and the neural differentiation promoting effect thereof, and the effect of L-valine was compared with that of L-leucine and L-isolencine. Here, the PCl2 cells were cultivated using an RPMI-1640 medium containing 10% equine serum (inactivated), 5% bovine fetal serum (inactivated), 100 U/mL penicillin G and 100 μg/mL streptomycin, in a 5% CO2 vapor phase in an incubator at 37° C., and the resultant cells in an about 70% confluent state were peeled with a basal medium and used in the experiment. […] In FIG. 1, the neurite formation rate is expressed as ±SD, and SD is a standard deviation of the three experiments carried out in the same manner. […]
row,SMILES,neurite formation rate (maximum)
1,"CCCC(=O)Nc1ncnc2c1ncn2[C@@H]1O[C@@H]2COP(=O)(O)O[C@H]2[C@H]1OC(=O)CCC [Bt2cAMP, dibutyryladenosine 3′,5′-cyclic monophosphate]",19.5%
